Measured values as given in ChEMBL document CHEMBL3639268, “Derivatives of N-acyl-N‚Ä=-phenylpiperazine useful (inter alia) for the prophylaxis or treatment of diabetes” (2014).

Target: Retinol-binding protein 4 (Homo sapiens, UniProt P02753)
Test: Binding Assay: Streptavidin (20 ul) (10 ug/ml Streptavidin type II (Wako Pure Chemical Industries, Ltd.), 10 mM Tris-HCl (pH 7.5), 10 mM NaCl) was added to a 384 well black plate (Nunc MaxiSorp, Thermo Fisher Scientific Inc.), and the plate was subjected to centrifugation (1000 rpm, 1 min) and coated overnight at 4 C. The plate was washed twice with PBST (PBS, 0.05% Tween 20, 100 ul/well) and blocked with 25% Block Ace (Snow Brand Milk Products Co., Ltd., PBS, 100 ul/well). The plate was subjected to centrifugation (1000 rpm, 1 min) and incubated at room temperature for 4 hr or overnight at 4 C. The plate was washed twice with PBST (PBS, 0.05% Tween 20, 100 ul/well), and biotinylate human TTR (stock solution concentration 1.0 mg/ml) diluted 750-fold with PBST was added at 20 ul/well. The plate was subjected to centrifugation (1000 rpm, 1 min) and stood still at room temperature for 1.5 hr or overnight at 4 C. The plate was washed 3 times with PBST (100 ul/well).

IC50: 15 nM
Structure (SMILES): CC(C)(C)c1ccccc1N1CCN(C(=O)c2nc[nH]n2)CC1
